Source: patent US20210070748A1, “INHIBITORS OF BRUTONS TYROSINE KINASE” (Pharmacyclics LLC, priority 2015, published 2021)
Where two headings read alike, the source gives them in different places.

Experiments:
Type in all cases: biochemical
JAK3 = target: T1, JAK3 (Homo sapiens, UniProt P52333); assay: Inhibition of a panel of kinases, in vitro HotSpot kinase assay: JAK3; conditions: for JAK3* IC50 relative to Btk IC50 value: fold relative to Btk IC50 value; for IC50: 1 μM ATP, read-out: IC50 JAK3
T1 sequence (P52333 1-1124): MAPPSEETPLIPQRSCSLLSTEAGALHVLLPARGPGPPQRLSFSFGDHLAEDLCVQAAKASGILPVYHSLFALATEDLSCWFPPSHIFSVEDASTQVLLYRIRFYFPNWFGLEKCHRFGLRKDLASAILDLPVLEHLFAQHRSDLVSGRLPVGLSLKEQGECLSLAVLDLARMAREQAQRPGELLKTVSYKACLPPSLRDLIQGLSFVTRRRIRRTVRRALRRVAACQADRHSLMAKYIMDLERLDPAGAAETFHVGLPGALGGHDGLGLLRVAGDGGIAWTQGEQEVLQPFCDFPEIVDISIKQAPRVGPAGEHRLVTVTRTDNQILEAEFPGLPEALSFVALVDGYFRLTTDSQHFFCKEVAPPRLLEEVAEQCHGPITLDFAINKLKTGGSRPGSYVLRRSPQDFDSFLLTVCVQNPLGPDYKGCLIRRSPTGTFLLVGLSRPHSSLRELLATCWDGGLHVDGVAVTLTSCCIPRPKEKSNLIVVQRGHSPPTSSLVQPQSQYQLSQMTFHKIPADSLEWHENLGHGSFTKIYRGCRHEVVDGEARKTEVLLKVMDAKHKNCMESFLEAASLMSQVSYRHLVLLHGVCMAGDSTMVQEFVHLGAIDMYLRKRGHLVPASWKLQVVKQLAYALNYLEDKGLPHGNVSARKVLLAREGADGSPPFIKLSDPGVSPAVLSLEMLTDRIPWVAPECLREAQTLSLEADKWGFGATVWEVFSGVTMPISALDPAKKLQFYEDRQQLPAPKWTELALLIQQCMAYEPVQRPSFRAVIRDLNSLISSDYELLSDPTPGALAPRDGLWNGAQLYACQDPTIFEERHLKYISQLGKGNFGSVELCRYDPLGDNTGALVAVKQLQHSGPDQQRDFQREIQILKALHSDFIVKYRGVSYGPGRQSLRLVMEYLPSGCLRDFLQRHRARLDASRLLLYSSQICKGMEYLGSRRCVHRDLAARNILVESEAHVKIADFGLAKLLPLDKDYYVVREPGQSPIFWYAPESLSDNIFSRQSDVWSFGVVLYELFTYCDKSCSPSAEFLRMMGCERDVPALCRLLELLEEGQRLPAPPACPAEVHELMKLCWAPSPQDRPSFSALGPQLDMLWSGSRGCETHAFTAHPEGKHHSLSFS

EGFR = EGFR (Homo sapiens, UniProt P00533); assay: Inhibition of a panel of kinases, in vitro HotSpot kinase assay: EGFR; conditions: for EGFR* IC50 relative to Btk IC50 value: fold relative to Btk IC50 value; for IC50: 1 μM ATP
EGFR, sequence (P00533 25-1210): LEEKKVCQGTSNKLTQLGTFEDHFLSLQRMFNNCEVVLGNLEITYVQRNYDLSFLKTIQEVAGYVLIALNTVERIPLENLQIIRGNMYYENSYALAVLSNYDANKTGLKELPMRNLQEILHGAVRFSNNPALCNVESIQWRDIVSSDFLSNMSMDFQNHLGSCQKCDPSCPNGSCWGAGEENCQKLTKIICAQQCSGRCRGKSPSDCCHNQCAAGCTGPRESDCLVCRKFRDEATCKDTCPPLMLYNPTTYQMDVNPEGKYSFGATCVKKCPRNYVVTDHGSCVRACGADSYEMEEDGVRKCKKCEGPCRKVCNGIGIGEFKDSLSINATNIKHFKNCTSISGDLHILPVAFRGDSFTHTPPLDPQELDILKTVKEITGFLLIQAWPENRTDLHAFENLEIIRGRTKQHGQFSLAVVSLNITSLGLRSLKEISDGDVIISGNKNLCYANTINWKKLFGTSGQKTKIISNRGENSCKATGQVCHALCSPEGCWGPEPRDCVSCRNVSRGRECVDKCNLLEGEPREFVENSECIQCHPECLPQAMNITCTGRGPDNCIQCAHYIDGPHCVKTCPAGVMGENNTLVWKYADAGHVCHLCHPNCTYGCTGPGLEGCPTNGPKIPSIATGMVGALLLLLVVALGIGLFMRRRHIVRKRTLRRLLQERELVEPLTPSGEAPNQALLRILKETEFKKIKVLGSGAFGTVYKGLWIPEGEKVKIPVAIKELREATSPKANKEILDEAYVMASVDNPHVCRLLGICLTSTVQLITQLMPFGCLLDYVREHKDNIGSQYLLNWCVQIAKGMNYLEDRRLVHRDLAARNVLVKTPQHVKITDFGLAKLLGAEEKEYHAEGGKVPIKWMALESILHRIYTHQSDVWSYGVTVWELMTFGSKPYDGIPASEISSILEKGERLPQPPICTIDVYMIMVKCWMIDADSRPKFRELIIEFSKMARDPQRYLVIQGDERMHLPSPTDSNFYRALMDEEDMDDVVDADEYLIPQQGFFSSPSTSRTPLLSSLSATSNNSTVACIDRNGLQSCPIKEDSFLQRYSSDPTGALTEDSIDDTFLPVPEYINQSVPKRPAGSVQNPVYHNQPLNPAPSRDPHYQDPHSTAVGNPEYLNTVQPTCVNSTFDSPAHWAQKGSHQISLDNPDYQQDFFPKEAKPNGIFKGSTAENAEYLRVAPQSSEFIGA
Method: (§1) The degree of inhibition of a panel of kinases is determined using the in vitro HotSpot kinase assay (purified enzymes, ^33P-ATP, an appropriate substrate and 1 μM ATP).

SRC = SRC (Homo sapiens, UniProt P12931); assay: Inhibition of a panel of kinases, in vitro HotSpot kinase assay: SRC; conditions: for SRC* IC50 relative to Btk IC50 value: fold relative to Btk IC50 value; for IC50: 1 μM ATP
SRC, sequence (P12931 whole entry): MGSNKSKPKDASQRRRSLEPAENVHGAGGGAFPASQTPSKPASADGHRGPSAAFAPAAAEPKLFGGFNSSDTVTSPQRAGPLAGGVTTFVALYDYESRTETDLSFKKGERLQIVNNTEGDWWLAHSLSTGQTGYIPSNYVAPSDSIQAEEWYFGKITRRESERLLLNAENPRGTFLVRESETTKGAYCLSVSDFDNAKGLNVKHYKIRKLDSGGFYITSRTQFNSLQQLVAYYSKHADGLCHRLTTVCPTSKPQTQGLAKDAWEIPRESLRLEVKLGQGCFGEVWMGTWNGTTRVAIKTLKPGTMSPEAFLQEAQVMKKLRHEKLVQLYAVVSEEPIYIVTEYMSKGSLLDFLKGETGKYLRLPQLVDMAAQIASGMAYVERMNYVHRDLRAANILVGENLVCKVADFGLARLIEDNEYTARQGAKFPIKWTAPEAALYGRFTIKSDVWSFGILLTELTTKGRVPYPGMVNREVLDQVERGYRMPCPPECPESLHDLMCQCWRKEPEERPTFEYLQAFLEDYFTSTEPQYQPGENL
Method: as §1

TEC = target: T2, TEC (Homo sapiens, UniProt P42680); assay: Inhibition of a panel of kinases, in vitro HotSpot kinase assay: TEC; conditions: for TEC* IC50 relative to Btk IC50 value: fold relative to Btk IC50 value; for IC50: 1 μM ATP
T2 sequence (P42680 1-631): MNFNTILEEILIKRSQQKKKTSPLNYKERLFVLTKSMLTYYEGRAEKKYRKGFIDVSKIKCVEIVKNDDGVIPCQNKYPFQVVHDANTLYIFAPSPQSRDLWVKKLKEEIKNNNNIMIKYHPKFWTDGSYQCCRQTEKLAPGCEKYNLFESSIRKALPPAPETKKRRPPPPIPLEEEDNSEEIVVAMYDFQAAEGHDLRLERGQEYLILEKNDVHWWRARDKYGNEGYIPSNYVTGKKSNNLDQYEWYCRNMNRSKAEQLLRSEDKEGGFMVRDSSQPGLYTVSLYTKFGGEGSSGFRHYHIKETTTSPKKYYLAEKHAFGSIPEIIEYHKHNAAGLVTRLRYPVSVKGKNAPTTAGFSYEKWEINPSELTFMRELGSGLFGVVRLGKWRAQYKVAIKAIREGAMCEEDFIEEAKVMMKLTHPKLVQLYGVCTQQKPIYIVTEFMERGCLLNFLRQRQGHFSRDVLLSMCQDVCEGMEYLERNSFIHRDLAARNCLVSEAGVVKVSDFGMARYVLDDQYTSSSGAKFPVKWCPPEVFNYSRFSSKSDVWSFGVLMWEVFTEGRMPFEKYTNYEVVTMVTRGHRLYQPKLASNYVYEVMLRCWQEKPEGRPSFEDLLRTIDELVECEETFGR
Method: as §1

SMILES	JAK3* IC50 relative to Btk IC50 value (JAK3) [x]	EGFR* IC50 relative to Btk IC50 value (EGFR) [x]	SRC* IC50 relative to Btk IC50 value (SRC) [x]	TEC* IC50 relative to Btk IC50 value (TEC) [x]	further results
C[C@@H]1[C@H](NC(=O)c2ccc(C3COC3)cc2)CCCN1c1cnc(C(N)=O)c(Nc2cnn(C)c2)n1 [Example A-206, 3-(1-methyl-1H-pyrazol-4-ylamino)-5-((2R,3R)-2-methyl-3-(4-(oxetan-3-yl)benzamido)piperidin-1-yl)pyrazine-2-carboxamide]	341	896	33	1	–
C=CC(=O)N1CCC[C@@H](Nc2nnc(C(N)=O)c(Nc3cc(C)ns3)n2)C1 [Example C-56, (R)-3-(1-acryloylpiperidin-3-ylamino)-5-(3-methylisothiazol-5-ylamino)-1,2,4-triazine-6-carboxamide]	–	–	–	–	IC50 (JAK3; Table 15, C compounds): < 10 nM; IC50 (EGFR; Table 15, C compounds): ≤ 10 nM; IC50 (SRC; Table 15, C compounds): 10 to 100 nM; IC50 (TEC; Table 15, C compounds): ≤ 10 nM
Cc1nn(C)cc1Nc1nc(N2CCC[C@@H](NC(=O)c3ccc(C4CC4)cc3)[C@H]2C)cnc1C(N)=O [Example A-192, 5-((2R,3R)-3-(4-cyclopropylbenzamido)-2-methylpiperidin-1-yl)-3-(1,3-dimethyl-1H-pyrazol-4-ylamino)pyrazine-2-carboxamide]	–	–	–	–	IC50 (JAK3; Table 13, A compounds): > 10000 nM; IC50 (EGFR; Table 13, A compounds): 1000 to 10000 nM; IC50 (SRC; Table 13, A compounds): > 10000 nM; IC50 (TEC; Table 13, A compounds): 1000 to 10000 nM

More lines, main results first:

JAK3* IC50 relative to Btk IC50 value (JAK3) [x]	EGFR* IC50 relative to Btk IC50 value (EGFR) [x]	SRC* IC50 relative to Btk IC50 value (SRC) [x]	TEC* IC50 relative to Btk IC50 value (TEC) [x]	SMILES	further results
7353	3304	98	8	C[C@@H]1[C@H](NC(=O)c2ccc(C(C)(C)C)cc2)CCCN1c1cnc(C(N)=O)c(Nc2cnn(C)c2)n1 [Example A-203, 5-((2R,3R)-3-(4-tert-butylbenzamido)-2-methylpiperidin-1-yl)-3-(1-methyl-1H-pyrazol-4-ylamino)pyrazine-2-carboxamide]	–
1102	2962	47	8	C[C@@H]1[C@H](NC(=O)c2ccc(C3CC3)cc2)CCCN1c1nnc(C(N)=O)c(Nc2cnn(C)c2)n1 [Example A-201, 3-[(2R,3R)-3-(4-cyclopropylbenzamido)-2-methylpiperidin-1-yl]-5-[(1-methyl-1H-pyrazol-4-yl)amino]-1,2,4-triazine-6-carboxamide]	–
